Our source for the Anti-HIV-TAT activity values is patent EP0574781A2, “2-Amino-5-heterocyclic-substituted-1,4-benzodiazepines and their use in the treatment of aids” (priority 1992, dated 1993).

The structures appear in SMILES notation.

T1 sequence (P04608 whole entry): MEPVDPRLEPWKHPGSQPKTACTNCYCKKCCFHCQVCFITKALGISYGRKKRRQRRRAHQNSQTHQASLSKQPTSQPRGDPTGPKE

This experiment concerns the target T1, HIV-TAT (Human immunodeficiency virus type 1 group M subtype B, UniProt P04608).
T1 construct: expressed in transfected cells; host or cells: COS cells
Nature of the experiment: anti-HIV-TAT assay (SeAP reporter under HIV-LTR versus RSV-LTR in transfected COS cells). As to conditions: specific inhibition 100 [(1-A/B) - (1-C/D)] of SeAP under HIV-LTR versus RSV-LTR, concentrations tested 1 to 50 /1.M, compound added 24 hours post transfection, assayed 48 hours after addition, average of at least three tests. It counts as cell-based. The procedure:
The compounds of formula I were tested for anti-HIV-TAT activity in an assay described in US Patent No. 5070010, comprising the following steps: • (a) putting both the expression of the Secreted Alkaline Phosphatase (SeAP) gene and the viral trasactivator TAT gene under the control of the HIV promoter LTR responsive to the action of the HIV transactivator TAT; • (b) transfecting cultured mammalian cells with plasmids which contain the gene constructs of (a) above and cause cellular production of the trasactivating factor TAT ad SeAP; • (c) adding the agent to be tested, here the compounds of formula I; and determining the amount of SeAP produced, by measuring SeAP enzymatic activity, whereby inhibition of SeAP production correlates with the anti-TAT inhibition activity.
In this assay, the inhibition of SeAP positively correlates with anti-TAT activity. The greater the ability of a agent to inhibit SeAP, the greater is its anti-TAT activity.
Specifically, with respect to the results reported below, the anti-HIV-TAT assay was run as follows: • At 24 hours post transfection 1, 10 and 50 /1.M of a test compound of formula I was added to the culture media of COS cells transfected with two plasmids, one containing the reporter gene which codes for SeAP under control of HIV-LTR, and the other containing the HIV-TAT gene also under control of HIV-LTR. […]
The anti-HIV-TAT activities of the test compounds were determined by measuring the amount of alkaline phosphatase in the supernatant media of cultures of cells in which SeAP gene expression was under the control of the HIV LTR promoter. The specific inhibitory activities of the test compounds were calculated according to the formula: 100 [(1-A/B) - (1-C/D)] where A and B are the alkaline phosphatase activites produced by HIV-LTR/SeAP in the presence and absence, respectively, of test compound, and C and D are the alkaline phosphatase activities produced by RSV-LTR/SeAP in the presence and absence, respectively, of test compound. […]
`CNC1=Nc2ccc(Cl)cc2C(c2cnn[nH]2)=NC1` [Example 1, 7-chloro-N-methyl-5-(1H-1,2,3-triazol-5-yl)3H-1,4-benzodiazepin-2-amine]: the Anti-HIV-TAT activity result was “High (High is >60% inhibition)”.

As for `CNC1=Nc2ccc(Cl)cc2C(c2cn[nH]c2)=NC1` [Example 2, 7-chloro-N-methyl-5-(1 H-pyrazol-4-yl)-3H-1,4-benzodiazepin-2-amine], the Anti-HIV-TAT activity entry is listed as “High/Medium”. The result for `CNC1=Nc2ccc(C)cc2C(c2cn[nH]c2)=NC1` [Example 3, N,7-Dimethyl-5-(1 H-pyrazol-4-yl)-3H-1,4-benzodiazepin-2-amine] reads “High/Medium”.
